PubChem BioAssay AID1963970 (Molecular Pharmacology Branch, DTP, NCI, 2024)

Test system: 931267-113-T-J1-PDC multicell spheroid viability
Experiment: Anticancer human tumor 931267-113-T-J1-PDC patient-derived colon adenocarcinoma cell line growth inhibition [PI3K]
Settings: for IC50: curve of first compound; for viability, T/C: stronger effect = lower value
Description: Combinatorial screen of targeted agents with the PI3K inhibitors inavolisib, alpelisib, duvelisib, and copanlisib in multi-cell type tumor spheroids
A high-throughput screen of multi-cell type tumor spheroids was designed to identify active combinations of targeted small molecules and PI3K pathway inhibitors. Complex spheroids include a stromal component modeled by human endothelial cells (HUVEC) and fibroblasts modeled by human mesenchymal stem cells (MSCs). The concentration ranges selected for each drug and investigational agent were based upon clinically achievable concentrations if the clinical Cmax of the agent was known.
Compounds. The drugs and investigational agents: inavolisib (NSC800729), alpelisib (NSC765974), duvelisib (NSC772469), copanlisib (NSC816437), ipatasertib (NSC767898), afuresertib (NSC778305), talazoparib (NSC767125), sapanisertib (NSC764658), selumetinib (NSC741078), tovorafenib (DAY101, NSC766906), vemurafenib (NSC761431), ravoxertinib (NSC781343), sotorasib (NSC818433), MRTX1133 (NSC 836407), abemaciclib (NSC 768073), palbociclib (NSC758247), venetoclax (NSC 766270), SY5609 (NSC837396), enzalutamide (NSC755605), and darolutamide (NSC825331), were obtained from the National Cancer Institute (NCI) Developmental Therapeutics Program Chemical Repository. The FDA-approved anticancer drug set is available from the NCI Developmental Therapeutics Program. […] The stock solutions were prepared in dimethyl sulfoxide (DMSO, Sigma-Aldrich, St. Louis, MO, cat. D2650) at 800-fold the tested concentration and stored at -70 degrees C prior to their use. All drugs and investigational agents were tested over a range starting from a high concentration at or near the clinical Cmax and decreasing in half-log increments. If the clinical Cmax for an agent had not been determined, the highest concentration tested was 10 microM.
Cell Culture. All cells were maintained in an incubator at 37 degrees C and 5% CO2 with 95% humidity. The PDC lines were cultured according to standard operating procedures established by the NCI PDMR (https://pdmr.cancer.gov/sops/default.htm). All PDCs were thawed and cultured in Matrigel-coated flasks prepared with a working solution of 1X Ham's F-12 nutrient mix, without supplementation (Invitrogen, Waltham, MA, cat. 11765054), 100 U/mL penicillin-streptomycin (Invitrogen, cat. 15140122), and 2.5% Matrigel (Corning Inc., Corning, NY, cat. 354248) for the first three passages. The 354836-022-R-J1-PDC, 475296-252-R-J1-PDC, and 997726-040-R-J2-PDC lines were cultured in 6A media, which includes advanced DMEM/F-12 (Thermo Fisher Scientific, cat. 12634028), 10 mM HEPES (Thermo Fisher Scientific, cat. 15630080), 1X GlutaMAX supplement (Thermo Fisher Scientific, cat. 35050061), 0.1 mg/mL primocin (InvivoGen, San Diego, CA, cat. ant-pm-2), 10% defined fetal bovine serum, heat inactivated (HyClone Laboratories Inc., Logan, UT, cat. SH30070.03HI), 50% L-WRN conditioned media (ATCC, cat. CRL-3276), 1.25 mM N-Acetyl-L-cysteine (Sigma-Aldrich, cat. A9165), 10 mM nicotinamide (Sigma-Aldrich, cat. N0636), 1X B-27 supplement (Thermo Fisher Scientific, cat. 17504044), 1X N-2 supplement (Thermo Fisher Scientific, cat. 17502048), and 10 microM Y-27632 dihydrochloride (Tocris Bioscience, Bristol, United Kingdom, cat. 1254). The 624824-186-R-J2-PDC line was cultured in 6C/Colon 1B media, which includes all 6A media components plus 50 ng/mL human EGF recombinant protein (Thermo Fisher Scientific, cat. PHG0311). […]

[1] = second compound 0.00316 µM, first compound 0.0316 µM
[2] = second compound 0.00316 µM, first compound 0.1 µM
[3] = second compound 0.00316 µM, first compound 0.316 µM
[4] = second compound 0.00316 µM, first compound 1 µM
[5] = second compound 0.01 µM, first compound 0.0316 µM
[6] = second compound 0.01 µM, first compound 0.1 µM
[7] = second compound 0.01 µM, first compound 0.316 µM
[8] = second compound 0.01 µM, first compound 1 µM
[9] = second compound 0.0316 µM, first compound 0.0316 µM
[10] = second compound 0.0316 µM, first compound 0.1 µM
[11] = second compound 0.0316 µM, first compound 0.316 µM
[12] = second compound 0.0316 µM, first compound 1 µM
[13] = second compound 0.1 µM, first compound 0.0316 µM
[14] = second compound 0.1 µM, first compound 0.1 µM
[15] = second compound 0.1 µM, first compound 0.316 µM
[16] = second compound 0.1 µM, first compound 1 µM
[17] = second compound 0.316 µM, first compound 0.0316 µM
[18] = second compound 0.316 µM, first compound 0.1 µM
[19] = second compound 0.316 µM, first compound 0.316 µM
[20] = second compound 0.316 µM, first compound 1 µM
[21] = second compound 1 µM, first compound 0.0316 µM
[22] = second compound 1 µM, first compound 0.1 µM
[23] = second compound 1 µM, first compound 0.316 µM
[24] = second compound 1 µM, first compound 1 µM
[25] = second compound 0.00316 µM, first compound 0.00316 µM
[26] = second compound 0.00316 µM, first compound 0.01 µM
[27] = second compound 0.01 µM, first compound 0.00316 µM
[28] = second compound 0.01 µM, first compound 0.01 µM
[29] = second compound 0.0316 µM, first compound 0.00316 µM
[30] = second compound 0.0316 µM, first compound 0.01 µM
[31] = second compound 0.1 µM, first compound 0.00316 µM
[32] = second compound 0.1 µM, first compound 0.01 µM
[33] = second compound 0.316 µM, first compound 0.00316 µM
[34] = second compound 0.316 µM, first compound 0.01 µM
[35] = second compound 1 µM, first compound 0.00316 µM
[36] = second compound 1 µM, first compound 0.01 µM
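Note: viability read 7 days after compound addition.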

Compound: CC(C)NCC(C(=O)N1CCN(c2ncnc3c2C(C)CC3O)CC1)c1ccc(Cl)cc1 (stereo unspecified) + CC(Nc1ccc2c(c1)OCCn1cc(N3C(=O)OCC3C(F)F)nc1-2)C(N)=O
- IC50 (second compound 0.00316 µM): > 10000 nM
- IC50 (second compound 0.01 µM): > 10000 nM
- IC50 (second compound 0.0316 µM): > 10000 nM
- IC50 (second compound 0.1 µM): > 10000 nM
- IC50 (second compound 0.316 µM): > 10000 nM
- IC50 (second compound 1 µM): > 10000 nM
- viability, T/C [1]: 91%
- viability, T/C [2]: 90.8%
- viability, T/C [3]: 92.9%
- viability, T/C [4]: 95.5%
- viability, T/C (second compound 0.00316 µM, first compound 3.16 µM): 86.8%
- viability, T/C (second compound 0.00316 µM, first compound 10 µM): 67.3%
- viability, T/C [5]: 102%
- viability, T/C [6]: 94.3%
- viability, T/C [7]: 97.2%
- viability, T/C [8]: 95.2%
- viability, T/C (second compound 0.01 µM, first compound 3.16 µM): 83.5%
- viability, T/C (second compound 0.01 µM, first compound 10 µM): 69.8%
- viability, T/C [9]: 103%
- viability, T/C [10]: 105%
- viability, T/C [11]: 99.2%
- viability, T/C [12]: 94.8%
- viability, T/C (second compound 0.0316 µM, first compound 3.16 µM): 96.4%
- viability, T/C (second compound 0.0316 µM, first compound 10 µM): 69.9%
- viability, T/C [13]: 101%
- viability, T/C [14]: 95.7%
- viability, T/C [15]: 97.9%
- viability, T/C [16]: 96.2%
- viability, T/C (second compound 0.1 µM, first compound 3.16 µM): 84.2%
- viability, T/C (second compound 0.1 µM, first compound 10 µM): 64.7%
- viability, T/C [17]: 85.3%
- viability, T/C [18]: 84.5%
- viability, T/C [19]: 83.7%
- viability, T/C [20]: 85.4%
- viability, T/C (second compound 0.316 µM, first compound 3.16 µM): 80.5%
- viability, T/C (second compound 0.316 µM, first compound 10 µM): 66.7%
- viability, T/C [21]: 73%
- viability, T/C [22]: 75.4%
- viability, T/C [23]: 72.1%
- viability, T/C [24]: 76%
- viability, T/C (second compound 1 µM, first compound 3.16 µM): 82.9%
- viability, T/C (second compound 1 µM, first compound 10 µM): 59.9%

Compound: CCN1CCN(Cc2ccc(Nc3ncc(F)c(-c4cc(F)c5nc(C)n(C(C)C)c5c4)n3)nc2)CC1 + CC(Nc1ccc2c(c1)OCCn1cc(N3C(=O)OCC3C(F)F)nc1-2)C(N)=O
- IC50 (second compound 0.00316 µM): > 1000 nM
- IC50 (second compound 0.01 µM): > 1000 nM
- IC50 (second compound 0.0316 µM): > 1000 nM
- IC50 (second compound 0.1 µM): > 1000 nM
- IC50 (second compound 0.316 µM): > 1000 nM
- IC50 (second compound 1 µM): 452 nM
- viability, T/C [25]: 95.5%
- viability, T/C [26]: 99.3%
- viability, T/C [1]: 102%
- viability, T/C [2]: 108%
- viability, T/C [3]: 99.3%
- viability, T/C [4]: 80.8%
- viability, T/C [27]: 108%
- viability, T/C [28]: 96.7%
- viability, T/C [5]: 99.2%
- viability, T/C [6]: 91.5%
- viability, T/C [7]: 93.4%
- viability, T/C [8]: 80.7%
- viability, T/C [29]: 105%
- viability, T/C [30]: 101%
- viability, T/C [9]: 95.2%
- viability, T/C [10]: 85.2%
- viability, T/C [11]: 86%
- viability, T/C [12]: 70.2%
- viability, T/C [31]: 92.8%
- viability, T/C [32]: 97.8%
- viability, T/C [13]: 94.1%
- viability, T/C [14]: 79.7%
- viability, T/C [15]: 69.7%
- viability, T/C [16]: 60.9%
- viability, T/C [33]: 80.4%
- viability, T/C [34]: 84.5%
- viability, T/C [17]: 79%
- viability, T/C [18]: 70.4%
- viability, T/C [19]: 62.5%
- viability, T/C [20]: 51.6%
- viability, T/C [35]: 86.7%
- viability, T/C [36]: 79.4%
- viability, T/C [21]: 65.7%
- viability, T/C [22]: 59.2%
- viability, T/C [23]: 52%
- viability, T/C [24]: 46.3%

Compound: Cn1ncnc1[C@H]1c2n[nH]c(=O)c3cc(F)cc(c23)N[C@@H]1c1ccc(F)cc1 + CC(Nc1ccc2c(c1)OCCn1cc(N3C(=O)OCC3C(F)F)nc1-2)C(N)=O
- IC50 (second compound 0.00316 µM): > 100 nM
- IC50 (second compound 0.01 µM): > 100 nM
- IC50 (second compound 0.0316 µM): > 100 nM
- IC50 (second compound 0.1 µM): > 100 nM
- IC50 (second compound 0.316 µM): > 100 nM
- IC50 (second compound 1 µM): > 100 nM
- viability, T/C (second compound 0.00316 µM, first compound 0.000316 µM): 98.5%
- viability, T/C (second compound 0.00316 µM, first compound 0.001 µM): 113%
- viability, T/C [25]: 104%
- viability, T/C [26]: 111%
- viability, T/C [1]: 103%
- viability, T/C [2]: 102%
- viability, T/C (second compound 0.01 µM, first compound 0.000316 µM): 114%
- viability, T/C (second compound 0.01 µM, first compound 0.001 µM): 108%
- viability, T/C [27]: 91.5%
- viability, T/C [28]: 114%
- viability, T/C [5]: 104%
- viability, T/C [6]: 108%
- viability, T/C (second compound 0.0316 µM, first compound 0.000316 µM): 109%
- viability, T/C (second compound 0.0316 µM, first compound 0.001 µM): 96.9%
- viability, T/C [29]: 105%
- viability, T/C [30]: 103%
- viability, T/C [9]: 108%
- viability, T/C [10]: 102%
- viability, T/C (second compound 0.1 µM, first compound 0.000316 µM): 101%
- viability, T/C (second compound 0.1 µM, first compound 0.001 µM): 87.5%
- viability, T/C [31]: 86.1%
- viability, T/C [32]: 89.1%
- viability, T/C [13]: 95.2%
- viability, T/C [14]: 87%
- viability, T/C (second compound 0.316 µM, first compound 0.000316 µM): 95.6%
- viability, T/C (second compound 0.316 µM, first compound 0.001 µM): 89.6%
- viability, T/C [33]: 81.2%
- viability, T/C [34]: 80.4%
- viability, T/C [17]: 85.1%
- viability, T/C [18]: 94.1%
- viability, T/C (second compound 1 µM, first compound 0.000316 µM): 78.2%
- viability, T/C (second compound 1 µM, first compound 0.001 µM): 82%
- viability, T/C [35]: 80.7%
- viability, T/C [36]: 76.9%
- viability, T/C [21]: 84.6%
- viability, T/C [22]: 73.6%
